Experimental data as given in patent US11220518B2, “Substituted n-pyrimidin-4-yl-3-amino-pyrrolo[3,4-c]pyrazoles as protein kinase C inhibitors” (PFIZER INC., priority 2007, dated 2022).

Biological target: Protein Kinase C beta 2 (PKCβII) (Homo sapiens (Human), UniProt P05771)
Test: Protein Kinase C beta 2 (PKCβII) coupled PK/LDH spectrophotometric kinase assay
Format: biochemical
Details: apparent Ki, ATP-competitive model (Morrison equation); 5 nM PKC, 0.1 mM ATP, 0.15 mM peptide, 30° C., pH 7.4; read-out: Ki app
Experimental: Protein Kinase C beta 2 (PKCβII) catalyzes the production of ADP from ATP that accompanies the phosphoryl transfer to the PKC Pseudosubstrate peptide (A→S, RFARKGSLRQKNV). This transfer is coupled to the oxidation of β-NADH through the activities of Pyruvate Kinase (PK) and Lactate Dehydrogenase (LDH). β-NADH conversion to NAD+ is monitored by the decrease in absorbance at 340 nm (e=6.22 cm^−1 mM^−1) using a Molecular Devices SPECTRA max PLUS spectrophotometer. […]
Steady-state kinetic parameters for the bi-bi kinase reaction were determined at saturating phospho-acceptor peptide substrate concentration (0.15 mM) by fitting initial velocity data to the Michaelis-Menten equation, v=Vmax[S]/(KM[S]) where v is the measured initial velocity, Vmax is the maximal enzyme velocity, [S] is the ATP substrate concentration, and KM is the Michealis constant for ATP. Enzyme turnover values (kcat) were calculated according to […], where [E] is the total enzyme concentration. Enzyme inhibition constants (apparent Ki values) were determined by fitting initial velocities at variable inhibitor concentrations to a model for ATP competitive inhibition based on the Morrison equation). […]

Chain of Protein Kinase C beta 2 (PKCβII) (P05771 other isoform, or with tags, fused parts or gaps): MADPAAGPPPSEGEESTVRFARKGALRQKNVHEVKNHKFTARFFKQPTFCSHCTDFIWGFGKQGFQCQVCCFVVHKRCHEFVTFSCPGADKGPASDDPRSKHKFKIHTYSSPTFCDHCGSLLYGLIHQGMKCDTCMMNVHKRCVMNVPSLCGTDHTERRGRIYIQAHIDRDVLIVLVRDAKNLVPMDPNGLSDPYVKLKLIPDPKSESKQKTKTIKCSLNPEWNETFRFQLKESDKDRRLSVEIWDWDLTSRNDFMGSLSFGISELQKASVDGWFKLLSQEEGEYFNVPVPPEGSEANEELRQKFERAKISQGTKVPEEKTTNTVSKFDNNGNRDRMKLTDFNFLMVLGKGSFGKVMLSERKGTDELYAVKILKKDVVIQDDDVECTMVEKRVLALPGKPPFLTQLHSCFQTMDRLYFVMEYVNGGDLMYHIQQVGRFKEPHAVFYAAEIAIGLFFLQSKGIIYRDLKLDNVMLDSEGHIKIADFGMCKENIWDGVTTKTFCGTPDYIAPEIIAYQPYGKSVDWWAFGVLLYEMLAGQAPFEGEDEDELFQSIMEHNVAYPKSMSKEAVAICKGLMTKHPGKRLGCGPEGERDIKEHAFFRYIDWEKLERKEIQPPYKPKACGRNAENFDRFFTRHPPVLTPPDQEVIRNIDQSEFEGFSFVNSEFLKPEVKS

| Ki | Structure (SMILES) |
| --- | --- |
| 1.12 nM | CCOc1ncc(F)c(Nc2n[nH]c3c2CN(C(=O)N2C[C@@H](C)N(C)C[C@@H]2C)C3(C)C)n1 [Example K1, N-(2-ethoxy-5-fluoropyrimidin-4-yl)-6,6-dimethyl-5-{[(2S,5R)-2,4,5-trimethylpiperazin-1-yl]carbonyl}-1,4,5,6-tetrahydropyrrolo[3,4-c]pyrazol-3-amine] |
| 15.6 nM | COCc1ncc(F)c(Nc2n[nH]c3c2CN(C(=O)N2CC(CCO)N(C)C[C@@H]2C)C3(C)C)n1 (single isomer, unassigned) [Example N3] |
